Values of other authors as cited in US20190027771A1, “ACID GAS REGENERABLE BATTERY” (Commonwealth Scientific and Industrial Research Organisation, priority 2015, published 2019).

Conditions: Table 2

Row | Compound | pKa
1 | 1,3 Diaminopropane | 10.4
2 | NCCCn1ccnc1 [1-(3-aminopropyl)-imidazole, 1-(3-aminopropyl)imidazole] | 9.6
3 | NCCOCCO [2-(2-Aminoethoxy)-ethanol, 2-(2-Aminoethoxy)ethanol] | 9.3
4 | CC1CCNCC1 [4-methylpiperidine] | 11.27
5 | NCCCCCO [5-Amino-1-pentanol] | 10.5
6 | CCCCCN [Amylamine] | 10.81
7 | N[C@@H](CCC(=O)O)C(=O)O [Glutamic acid] | 9.47
8 | C[C@H](N)C(=O)O [L-Alanine] | 9.69
9 | C[C@@H](O)[C@H](N)C(=O)O [L-Threonine] | 9.1
10 | CNCC(=O)O [Sarcosine] | 10.05
12 | CC(O)CNCC(C)O (stereo not drawn) [bis(2-hydroxypropyl)-amine, bis(2-hydroxypropyl)amine] | 9.1
13 | NCCCCCCN [hexamethylenediamine] | 10.9
14 | NCc1cccc(CN)c1 [m-Xylylenediamine] | 9.2
15 | Pyrrolidine | 11.35

Same assay, conditions: Table 3

Row | Compound | pKa
16 | 1,3 Diaminopropane | 10.4
17 | NCCCCCO [5-Amino-1-pentanol] | 10.5
18 | NCCCCCCN [hexamethylenediamine] | 10.9

Conditions: reduction of the free metal ion to the metal

Row | Compound | Cathode reaction potential E
19 | [Ag+] [Ag^+] | E = +0.80 V
20 | [Cd+2] [Cd^2+] | E = −0.403 V
21 | [Co+2] [Co^2+] | E = −0.277 V
22 | [Cu+2] [Cu^2+] | E = +0.34 V
23 | [Hg+2] [Hg^2+] | E = +0.8535 V
24 | [Ni+2] [Ni^2+] | E = −0.257 V
25 | [Pd+2] [Pd^2+] | E = +0.915 V
26 | [Pt+2] [Pt^2+] | E = +1.188 V
27 | [Zn+2] [Zn^2+] | E = −0.763 V

Same assay, conditions: reduction of the metal-ammine complex to the metal and NH3

Row | Compound | Anode reaction potential E
28 | N.N.[Ag+] [[Ag(NH3)2]^+] | E = +0.37 V
29 | N.N.N.N.[Cd+2] [[Cd(NH3)4]^2+] | E = −0.622 V
30 | N.N.N.N.[Co+2] [[Co(NH3)4]^2+] | E = −0.422 V
31 | N.N.N.N.[Cu+2] [[Cu(NH3)4]^2+] | E = −0.04 V
32 | N.N.N.N.[Hg+2] [[Hg(NH3)4]^2+] | E = +0.283 V
33 | N.N.N.N.N.N.[Ni+2] [[Ni(NH3)6]^2+] | E = −0.49 V
34 | N.N.N.N.[Pd+2] [[Pd(NH3)4]^2+] | E = 0.0 V
35 | N.N.N.N.N.N.[Pt+2] [[Pt(NH3)6]^2+] | E = +0.144 V
36 | N.N.N.N.[Zn+2] [[Zn(NH3)4]^2+] | E = −1.04 V
